Measured values from the METLIN SMRT retention time set (Domingo-Almenara et al. 2019).

Assay: gradient 5% acetonitrile 3 min, to 50% in 2 min, to 85% in 15 min, held 3 min, 100 µL/min
Conditions: column: Zorbax Extend-C18 2.1 x 50 mm; eluents: water / acetonitrile, 0.1% formic acid
How it was run: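 Retention time was recorded from adduct peaks, which were picked computationally and each inspected manually. Pure standards ran in mixtures of ~100 molecules on HPLC coupled to a quadrupole time-of-flight mass spectrometer, in positive and negative ionization mode, through a Zorbax Extend-C18 column (2.1 × 50 mm, 1.8 μm) at 100 μL/min. Eluents were water and acetonitrile, each with 0.1% formic acid.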

Row | RP-LC retention time [s] | SMILES
1 | 1050 | CCn1c(C(=O)N2CCN(c3cccc(OC)c3)CC2)cc2sccc21
2 | 693 | CC(=O)N1CCc2cc(N3CC(C(=O)NCc4cccc(C)c4)CC3=O)ccc21 (configuration not stated)
3 | 674 | O=C(Cc1ccsc1)N1CCc2nn(CC3CC3)c(=O)n2CC1
4 | 1140 | O=c1c2sccc2n(Cc2nc(-c3ccc(F)cc3)no2)c(=O)n1CCc1ccccc1
5 | 620 | C[C@@H](NC(=O)c1ccccc1F)C(=O)NCc1cscn1
6 | 805 | Cn1cc(S(=O)(=O)N2CCC(C(=O)N3CCc4ccccc43)CC2)cc1C(=O)N1CCCC1
7 | 834 | Cc1cc2c(cc1S(=O)(=O)N1CCCC1C(=O)NC1CCCCCCC1)OCC(=O)N2 (configuration not stated)
8 | 650 | CCn1c(CN(C)C(=O)Nc2ccc(Br)cc2F)nc2cc(C(=O)N(C)C)ccc21
9 | 761 | CCCn1cc(-c2nc(-c3ccccn3)no2)c(=O)c2cc(F)ccc21
10 | 608 | Cc1ccc(N2CCC(C(=O)Nc3ccc4c(c3)Cc3ccccc3-4)CC2)nn1
11 | 792 | COC(=O)c1cccc(NC(=O)NC(C)C(=O)N2CCc3ccccc32)c1 (configuration not stated)
12 | 664 | O=C([C@@H]1C[C@H](F)CN1S(=O)(=O)c1ccc(F)cc1)N1CCOCC1
13 | 636 | O=C(CN1CCN(c2ccc(F)c(F)c2)C1=O)NC1CCS(=O)(=O)C1 (configuration not stated)
14 | 921 | O=C(COC(=O)c1cccc([N+](=O)[O-])c1)c1ccc(NC(=O)c2ccccc2)cc1
15 | 713 | COc1ccc(C(=O)N2C(C(=O)NC(C)C)COC23CCN(C(=O)CC(C)(C)C)CC3)cc1 (configuration not stated)
16 | 672 | CCOc1ccccc1CN1CCc2nc(N3CCN(c4ncccn4)CC3)ncc2C1
17 | 626 | CCCS(=O)(=O)N1CC[C@@H]2COCCN(Cc3ccccc3)[C@@H]2C1
18 | 901 | CCCNS(=O)(=O)c1cc(-c2nnc(-c3ccc(OC)c(OC)c3)o2)ccc1C
19 | 807 | CN(C)c1ccc(CN2CCc3nc(N4CCN(c5ccccc5F)CC4)ncc3C2)cc1
20 | 1080 | CCc1nc(-c2csc(S(=O)(=O)N3CCCC(C(=O)Nc4c(C)cccc4CC)C3)c2)no1 (configuration not stated)
21 | 910 | CCN1C(=O)c2ccccc2Oc2ccc(C(=O)NCc3ccc(C)o3)cc21
22 | 638 | COc1c(C)cnc(Cn2cnc3c(Cl)nc(N)nc32)c1C
23 | 665 | O=C(Cn1cnc2nc(N3CCCC(C(=O)NC4CC4)C3)sc2c1=O)Nc1cccc(Cl)c1 (configuration not stated)

Row | RP-LC retention time [s] | SMILES
24 | 678 | CCc1nncn1C1CCN(S(=O)(=O)c2cccc(F)c2)CC1
25 | 1270 | Clc1ccccc1-c1nc(-c2ccc(-n3cccn3)nc2)no1
26 | 784 | COc1ccc(OC)c(CNc2c(-c3nc(C(C)C)no3)cnc3nc(C)ccc23)c1
27 | 749 | CC(C)n1cnc(S(=O)(=O)N2CCC(C(=O)NCc3ccc(Cl)cc3)CC2)c1
28 | 1110 | CCc1cccc(C)c1NC(=O)Cn1c(C)nc2c(sc3nc(-c4ccccc4)ccc32)c1=O
29 | 622 | O=C(CSc1ccc(N2CCCC(C(=O)NC3CC3)C2)nn1)NCc1ccc(F)cc1 (configuration not stated)
30 | 951 | CCOc1ccc(CCNC(=O)C2CCCN(C(=O)c3cc4sccc4n3CC)C2)cc1OCC (configuration not stated)
31 | 916 | O=C(NCc1nc(-c2ccc(Cl)cc2)no1)NC1CCCCC1
32 | 575 | COc1ccc(NC(=O)CCC2CCN(c3cc(NC4CC4)ncn3)CC2)c(C)c1
33 | 626 | CN1CCC(NC(=O)c2ccc3c(c2)N(S(=O)(=O)c2ccccc2F)CC3)CC1
34 | 724 | COc1cc(-c2nc3ncccn3c2NC2CCCCC2)cc(OC)c1OC
35 | 718 | Cc1cc(C(=O)NC(C)C)c2cccc(Cl)c2n1
36 | 600 | COc1ccc(C(=O)CN(Cc2ccccc2)C2=NCCS2)cc1
37 | 976 | Cc1ccccc1NS(=O)(=O)c1cn(CC(C)C)c2ncccc12
38 | 773 | COc1cccc(-n2c(N3CCC(C(=O)NCC(C)C)CC3)nc3ccsc3c2=O)c1
39 | 958 | COc1ccc(S(=O)(=O)N2CCCC(C(=O)Nc3ccc4c(c3)OCCO4)C2)cc1C (configuration not stated)
40 | 1030 | O=C(Cn1cccc1-c1nc(-c2ccc3c(c2)OCO3)no1)Nc1ccc(F)c(Cl)c1
41 | 890 | COc1cccc(NC(=O)N2CCCC(C)(C(=O)NCc3ccccc3C)C2)c1 (configuration not stated)
42 | 913 | O=C(NCCc1csc(-c2ccc(F)cc2)n1)c1cccs1
43 | 972 | COc1ccccc1N1CCN(C(=O)c2nnc(-c3ccc(S(=O)(=O)N4CCCC4)cc3)o2)CC1
44 | 556 | CN(C)C(CNC(=O)Nc1cccs1)c1cccs1 (configuration not stated)
45 | 1330 | COc1ccc(Cl)cc1NC(=O)c1c(O)c2cccnc2n(-c2cccc(F)c2)c1=O
46 | 676 | CC(=O)Nc1cccc(NS(=O)(=O)c2ccc3c(c2)OCCCO3)c1

Continued, compound first:

Row | SMILES | RP-LC retention time [s]
47 | Cc1ccn(-c2ccc(C(=O)NC3CCCC3)cn2)n1 | 815
48 | CC1CCN(c2cc(-c3noc(C(=O)N4CCCC4)n3)ccn2)CC1 | 764
49 | O=C(Cn1c(=O)c2cc(-c3cccs3)nn2c2ncccc21)Nc1ccc(F)cc1F | 872
50 | COc1ccc(C(=O)N2CCC3(CC2)N=C(c2cccc(Br)c2)NO3)c(OC)c1 | 832
51 | COC[C@@H]1CN(S(=O)(=O)c2ccccc2)C[C@H]1c1nc(C)no1 | 803
52 | CCOc1ccc(CNC(=O)C2CCN(Cc3cn(C)c4ccccc34)CC2)cc1OCC | 708
53 | Cn1cc(C(=O)NCc2ccc(F)cc2F)c(S(=O)(=O)N2CCSCC2)n1 | 876
54 | COC(=O)c1cc(OCC(=O)Nc2cccc(Cl)c2)c2ccccc2n1 | 821
55 | O=C(C1CCN(c2nc3ccc(-c4cccs4)nc3s2)CC1)N1CCCC1 | 893
56 | COc1ccc(-n2nnc(C(=O)O)c2-c2ccccc2)cc1OC | 691
57 | CCNc1nc(C)cc(N2CCN(S(=O)(=O)c3ccc(OC)c(C)c3)CC2)n1 | 723
58 | COc1cc(C(=O)N2CCN(c3cc(-c4cccs4)[nH]n3)CC2)cc(OC)c1OC | 699
59 | CC(C)c1ccc(Nc2nc3ccncc3n(Cc3ccccc3)c2=O)cc1 | 886
60 | CC(=O)Nc1ccc(C(=O)N2CCN(c3ccc(F)cc3)CC2)c(N2CCCCC2)c1 | 833
61 | CCc1ccc(-c2noc(CN3C(=O)COc4cc(Cl)ccc43)n2)cc1 | 1240
62 | COc1ccc2c(c1)C1(CCN(C(=O)c3ccc(C)cc3)C1)C(=O)N2C (configuration not stated) | 785
63 | Cn1c(=O)sc2cc(S(=O)(=O)N3CCC(C(=O)N4CCC5(CC4)OCCO5)CC3)ccc21 | 709
64 | CCC(C)N(CC(=O)N(Cc1ccco1)CC1CCCO1)C(=O)c1ccc(F)cc1 (configuration not stated) | 864
65 | Cc1nn2c(CNS(=O)(=O)c3ccc4c(c3)CCC4)c(-c3ccccc3)nc2s1 | 936
66 | Cc1ccc(S(=O)(=O)NC2CCN(C(=O)C3CC(=O)N(C4CCCC4)C3)CC2)cc1 (configuration not stated) | 727
67 | CCOC(=O)N1CCC2(CC1)N=C(c1ccc(OCC)cc1)CC(c1ccccc1O)N2 (configuration not stated) | 772

Row | SMILES | RP-LC retention time [s]
68 | COc1ccc(C(=O)Nc2c(-c3ccccc3)nc3ccccn23)c(OC)c1 | 664
69 | CC1CCN(S(=O)(=O)c2ccc(-c3nnc(C(=O)NC(C)C)o3)cc2)CC1 | 934
70 | CN(CC(=O)Nc1ccc(F)c(F)c1F)c1nc2c(Cl)cccc2s1 | 1000
71 | O=C(NCCc1nc(-c2ccc3c(c2)OCO3)n[nH]1)c1cc(F)ccc1Cl | 660
72 | CSc1ccc(CNC(=O)CN2C(=O)C3CCCCN3c3ccc(C(=O)N4CCCC4)cc32)cc1 (configuration not stated) | 850
73 | Cc1ccc(S(=O)(=O)n2nc(OC(=O)c3ccc(Cl)cc3Cl)cc2N)cc1 | 1030
74 | CCCn1cc(CCNS(=O)(=O)c2c(C)c(C)cc(C)c2C)c2cccnc21 | 1060
75 | COC(=O)c1nc(NC(=O)Cn2nc3c(cc2=O)CCCCC3)sc1CC(C)C | 941
76 | Cc1ccc(C)c(NC(=O)Cc2c(C(=O)O)c(C)cn2C)c1 | 795
77 | CN1C(=O)CCc2cc(NS(=O)(=O)Cc3ccc(Cl)cc3)ccc21 | 788
78 | CN1C2CC(OC(=O)C(CO)c3ccccc3)CC1C(O)C2 (configuration not stated) | 586
79 | Cn1nc(-c2nnc(-c3ccc(F)cc3)o2)c2c1CCN(S(=O)(=O)c1ccc3c(c1)CCC3)C2 | 1290
80 | CCn1cc(CN2CCC(C(=O)NCc3ccc(N(C)C)cc3)CC2)c2cc(OC)ccc21 | 603
81 | CCC1Oc2ccc(S(=O)(=O)N3CCC(C(=O)Nc4cc(C)ccc4C)CC3)cc2NC1=O (configuration not stated) | 837
82 | Cc1nc(N2CCOCC2)c2c(C(=O)Nc3ccccc3)c(C)oc2n1 | 778
83 | CCCNC(=O)N1CCCN(S(C)(=O)=O)CC1 | 582
84 | O=S(=O)(Cc1ccccc1Cl)N(CCc1ccccc1)Cc1ccccn1 | 950
85 | Cc1ccn2cc(C(=O)NCC3CCCCC3)nc2c1 | 714
86 | COC(=O)c1cc(OCC(=O)NCc2ccc3c(c2)OCO3)c2cc(F)ccc2n1 | 785
87 | COc1ccc(NC(=O)CN2C(=O)NC3(CCC(C)CC3)C2=O)c(OC)c1 (configuration not stated) | 827
